Several values for one entry are separate records, joined by “and”; a condition that tells them apart may be missing. Identical values can stand only once. Like-named read-outs stand apart in the source and are kept apart here. Marks after values point to notes of the source that are not given here.
What was measured:
mPGES-1 [1] = target: T1, mPGES-1 (Homo sapiens, UniProt O14684); settings: cited from earlier work; for IC50: ref Lauro et al., 2014
T1 construct: microsomal fractions from IL-1β-stimulated A549 cells served as the enzyme source; endogenous in cells; host or cells: A549 cells (IL-1β-stimulated), microsomal fraction
T1 sequence (O14684 1-152): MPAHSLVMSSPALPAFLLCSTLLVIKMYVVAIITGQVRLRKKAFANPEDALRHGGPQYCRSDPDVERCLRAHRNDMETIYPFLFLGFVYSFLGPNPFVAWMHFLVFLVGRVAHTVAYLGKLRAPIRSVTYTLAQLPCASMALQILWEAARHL

5-LOX = settings: cited from earlier work
[2] = test system: PGE2 production in A549 cells; design: method as in Kim et al., 2021; settings: ref Kim et al., 2021; cited from earlier work
mPGES-1 [3] = target: T1, mPGES-1; assay: Cell-free mPGES-1 enzyme assay (microsomal fractions from IL-1β-stimulated A549 cells); type: biochemical; settings: cell-free, A549 microsomes
Method: A cell-free assay was conducted to evaluate the capacity of compounds […] to act as inhibitors of mPGES-1. In this assay, microsomal fractions from IL-1β-stimulated A549 cells served as the enzyme source ([Gürses et al., 2021]). During the initial screening phase, compounds 3a–j were examined for their effects on mPGES-1 at a concentration of 10 µM.
Microsomal measures of A549 cells expressing mPGES-1 were made in accordance with prior research findings ([Koeberle et al., 2008]). These cells were cultivated in Dulbecco’s Modified Eagle Medium and resuspended in a homogenization buffer. Subsequently, the microsomes were subjected to pre-incubation with either assessed compounds or a carrier solution containing 0.1 percent DMSO. The enzymatic process was halted by introducing FeCl3, citric acid, and 11-PGE2 as an internal standard. The quantities of Prostaglandin E2 (PGE2) were measured via RP-HPLC methodologies.

soya bean 5-LOX = target: T2, soya bean 5-LOX (Glycine max, UniProt P08170); assay: 5-LOX enzyme assay (EIA kit, Cayman 760700); type: biochemical
T2 construct: purchased Cayman Chemical, Ann Arbor, Michigan, USA 760700
T2 sequence (P08170 1-839): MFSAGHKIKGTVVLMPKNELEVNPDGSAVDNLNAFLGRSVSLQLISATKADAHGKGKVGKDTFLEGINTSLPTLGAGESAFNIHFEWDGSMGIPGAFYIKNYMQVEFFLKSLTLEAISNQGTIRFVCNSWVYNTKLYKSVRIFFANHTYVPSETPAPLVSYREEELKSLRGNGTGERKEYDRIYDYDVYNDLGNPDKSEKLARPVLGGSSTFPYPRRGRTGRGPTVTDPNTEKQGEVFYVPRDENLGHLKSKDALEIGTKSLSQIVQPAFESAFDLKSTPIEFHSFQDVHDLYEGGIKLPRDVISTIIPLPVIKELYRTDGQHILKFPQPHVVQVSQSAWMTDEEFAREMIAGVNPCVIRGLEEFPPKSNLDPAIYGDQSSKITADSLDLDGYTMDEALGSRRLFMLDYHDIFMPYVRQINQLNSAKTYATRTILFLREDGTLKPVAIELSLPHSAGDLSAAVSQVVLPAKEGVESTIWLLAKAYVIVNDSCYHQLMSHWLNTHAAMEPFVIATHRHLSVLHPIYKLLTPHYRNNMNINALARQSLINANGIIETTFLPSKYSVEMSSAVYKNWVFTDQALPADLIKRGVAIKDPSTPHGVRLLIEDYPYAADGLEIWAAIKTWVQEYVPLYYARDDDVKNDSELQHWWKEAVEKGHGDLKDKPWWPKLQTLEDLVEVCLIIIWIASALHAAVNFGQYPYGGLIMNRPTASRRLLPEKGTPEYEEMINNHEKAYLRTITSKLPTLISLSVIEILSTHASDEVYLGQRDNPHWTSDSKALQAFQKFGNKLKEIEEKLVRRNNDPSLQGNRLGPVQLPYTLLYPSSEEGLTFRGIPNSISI
Description: The capacity of compounds 3a–j to inhibit the enzyme 5-lipoxygenase (5-LOX) has been investigated ([Youssif et al., 2019]).
The study used an enzyme immune assay (EIA) kit (catalogue no. 760700, Cayman Chemical, Ann Arbor, Michigan, USA) to evaluate the inhibitory activity of target analogues against soya bean 5-LOX, ensuring compliance with manufacturer’s instructions and protocols, and calculating IC50 values ([Roschek et al., 2009]).

[4] = test system: carrageen-induced paw edema; assay: Carrageenan-induced paw edema bioassay; type: in vivo, rat; design: concentration or dose not given beside the values
Method: The compounds’ efficacy was measured as edema inhibition percentage (EI %) after 1, 3, and 5 h of carrageenan injection vs. the conventional medicine Celecoxib.
Compounds 3c, 3e, 3h, and 3j were chosen for in vivo anti-inflammatory testing using the carrageen-induced paw edema bioassay method described by [Winter et al, (1962)]. The compounds’ efficacy was measured as edema inhibition percentage (EI%) after 1, 3, and 5 h of carrageenan injection vs. the conventional medicine Celecoxib.

PGE2 = assay: Rat serum PGE2 after carrageenan (ELISA); type: in vivo; settings: 4 hours after subcutaneous carrageenan
Description: Inhibiting PGE2 is a crucial strategy in anti-inflammatory therapy, playing a pivotal role in managing inflammation and its associated conditions.
(§1) In this study, specializing ELISA kits were used to determine the concentration of inflammatory cytokines PGE2, IL-6, and TNF-α. The study’s findings were examined in accordance with the instructions provided by the manufacturer, and measurements were taken based on the optical density at 450 nm.

TNF-α = assay: Rat serum TNF-α after carrageenan (ELISA); type: in vivo
Description: as §1

IL-6 = assay: Rat serum IL-6 after carrageenan (ELISA); type: in vivo
Description: as §1

rat intestinal mucosa = assay: Gastric ulcerogenic activity (macroscopic inspection); type: in vivo; design: Score: Severity lesions: scale not given here; settings: oral 10 mg/kg
Method: The two most common side effects of long-term NSAID use are gastrointestinal erosion and ulcers ([Hendawy et al., 2021]). As a result, we were curious about the ulcerogenic potential of the most efficacious drugs, 3e and 3j, when given orally. The ulcerogenic effects of 3e and 3j were assessed by macroscopic inspection of rat intestinal mucosa after oral administration of 10 mg/kg of 3e, 3j, indomethacin, and celecoxib ([Manivannan and Chaturvedi, 2011]).
The ulcerogenic effects of compounds 3e and 3j were evaluated by macroscopic examination of rat intestinal mucosa after oral administration of 10 mg/kg of these compounds and indomethacin and celecoxib ([Manivannan and Chaturvedi, 2011]). See Appendix A for details.

For O=C(Cc1cn(-c2ccccc2)nc1-c1ccc(Cl)cc1)NS(=O)(=O)c1ccc(Cl)cc1 [VIII], the “folds more potent than lonazolac calcium against mPGES-1” value (mPGES-1 [1]; ref Elkady et al., 2012) is listed as 19 fold, the IC50 (5-LOX; ref Elkady et al., 2012) is listed as 2900 nM and the “folds more potent than lonazolac calcium against 5-LOX” value (5-LOX; ref Elkady et al., 2012) is listed as 20 fold.
For CCOC(=O)C1=C(C(=O)c2ccc(OC)cc2)C(c2ccc(-c3cccc(C(F)(F)F)c3)o2)NC(=O)N1C (stereo not shown) [II], the IC50 (mPGES-1 [1]) is given as 7560 ± 940 nM.
For CCOC(=O)C1=C(C(=O)c2ccc(OC)cc2)C(c2ccc(-c3cccc(C(F)(F)F)c3)o2)NC(=O)N1 (stereo not shown) [I], the IC50 (mPGES-1 [1]) is listed as 4160 ± 470 nM.
In the case of COc1ccc2c(c1)c(CC(=O)NS(=O)(=O)c1ccc(C)cc1)c(C)n2C(=O)c1ccc(Cl)cc1 [VII], the IC50 (5-LOX; ref Elkady et al., 2012) is given as 2900 nM.
For O=C(Nc1ccc(OCCCCc2ccccc2)cc1)N(Cc1ccccc1)S(=O)(=O)c1ccc(Cl)cc1 [VI], the IC50 [2] is given as 240 nM and the “fold more active than the standard inhibitor MK-886 (PGE2 production)” value [2] is given as “about 9 fold”.
In the case of COc1ccc(C2NC(=S)NC(C)=C2C(=O)Nc2ccc(S(N)(=O)=O)cc2)cc1OC (stereo not shown) [Compound 3e, 4-[3,4-dimethoxyphenyl]-6-methyl-N-[4-sulfamoylphenyl]-2-thioxo-1,2,3,4-tetrahydropyrimidine-5-carboxamide], the remaining activity at 10 µM (mPGES-1 [3]; 10 µM compound, read-out: mPGES-1 RA (%) 10 µM (residual activity percentage)) is reported as 28.6%, the IC50 (mPGES-1 [3]) is reported as 970 nM and the IC50 (soya bean 5-LOX) is reported as 2070 nM. For the same compound, the “% Of edema inhibition 1 h” value ([4]; 1 h after carrageenan injection) was 35%, the “% Of edema inhibition 3 h” value ([4]; 3 h after carrageenan injection) was 57% and the “% Of edema inhibition 5 h” value ([4]; 5 h after carrageenan injection) was 65%. For the same compound, the PGE2 %inhibition (PGE2) was 72.70% and 73%, the PGE2 serum concentration (PGE2; mean ± SE) was 83.50 ± 2.30 ^b pg/mL and the TNFα %inhibition (TNF-α) was 67%. The TNFα serum concentration (TNF-α; mean ± SE) was 78.10 ± 2.20 ^b pg/mL, the IL-6 %inhibition (IL-6) was 75% and the IL-6 serum concentration (IL-6; mean ± SE) was 94.10 ± 2.75 ^b pg/mL. For the same compound, the “Score: No. of gastric ulcers” value (rat intestinal mucosa) was 0.60 ± 0.01, the “Score: Severity lesions” value (rat intestinal mucosa) was 1.00 ± 0.01 and the “Ulceration in the isolated rat stomach (in words)” value (rat intestinal mucosa) was “mild hyperemia but no widespread ulceration”. The melting point was 272 to 274 °C.
In the case of CCOC(=O)CCSC1=NC(c2ccccc2)C=C(c2ccccc2)N1 (stereo not shown) [IV], the “5-LOX % inhibition at 100 μg/mL” value (5-LOX; 100 μg/mL, ref Lokwani et al., 2015) is given as 51.84% and the IC50 (5-LOX; ref Lokwani et al., 2015) is given as 19100 nM.
In the case of COC(=O)C1=C(C)NC(Nc2cc(O)cc(Cl)c2)=NC1c1ccc(Cl)cc1 (stereo not shown) [V], the 5-LOX % inhibition (5-LOX; 2.46 µM concentration, ref Venugopala et al., 2015) is listed as 81.19%.
In the case of CC1=C(C(=O)OCc2ccccc2)C(c2ccc(-c3cccc(C(F)(F)F)c3)o2)NC(=O)N1CCC(=O)O (stereo not shown) [III], the “fold higher activity than compound I (mPGES-1)” value (mPGES-1 [1]; ref Terracciano et al., 2015) is given as 10 fold.

— paper PMC11117333, “Design and synthesis of new dihydropyrimidine/sulphonamide hybrids as promising anti-inflammatory agents via dual mPGES-1/5-LOX inhibition” (Frontiers in Chemistry, 2024)
